Data from patent publication US20050106582A1, “Compositions and methods utilizing stable reporter cell lines for detection of CREB-dependent signal transduction” (Stratagene, priority 1999, published 2005).
Like-named read-outs stand apart in the source and are kept apart here.

Tests used:
[1] = system: GAL4-CREB; assay: Luciferase reporter assay in RCLH-CREB stable cells treated with extracellular stimuli; type: cell-based, human; settings: 5 hours
[2] = system: GAL4-CREB; type: cell-based, human; settings: transient assays, 10 ug/ml; data not shown

Compound | stimulation of luciferase expression ([1]; in the presence of 100 uM forskolin) | effect on luciferase expression ([1]; 50 ug/ml) | stimulation of luciferase expression [2]
CCCCCCCCCCCCCC(=O)O[C@@H]1[C@@H](C)[C@@]2(O)[C@@H](C=C(CO)C[C@]3(O)C(=O)C(C)=C[C@@H]23)[C@@H]2C(C)(C)[C@]12OC(C)=O [PMA, phorbol-12-myristate-13-acetate] | approximately 70 fold |  | 
adenylate cyclase toxin [AC toxin] |  | approximately 7 fold | 13 fold
